Drawing on ChEMBL document CHEMBL1821596, “Isolation and structural identification of a direct-acting mutagen derived from N-nitroso-N-methylpentylamine and Fenton's reagent with copper ion” (Bioorg Med Chem, 2011), this text covers Activity for two molecules.

Each structure is given as a SMILES string.

What all share (format): toxicity, organism-based
Details in all cases: salmonella enterica subsp. enterica serovar typhimurium

Series [1] has as its system Salmonella typhimurium. Briefly: Mutagenic activity in Salmonella Typhimurium TA1535 at 100 uM after 2 hrs by plate-incorporating method in presence of Cu2+-H2O2.
Series [2] relates to Salmonella typhimurium. Briefly: Mutagenic activity in Salmonella Typhimurium TA1535 at 100 uM after 2 hrs by plate-incorporating method in presence of Fe2+-H2O2.
Series [3] concerns Salmonella typhimurium. Briefly: Mutagenic activity in Salmonella Typhimurium TA1535 at 100 uM after 2 hrs by plate-incorporating method in presence of Cu2+-Fe2+.
The test system of series [4] is Salmonella typhimurium. Briefly: Mutagenic activity in Salmonella Typhimurium TA1535 at 100 uM after 2 hrs by plate-incorporating method in presence of H2O2.
The subject of series [5] is Salmonella typhimurium. The experiment in a line: Mutagenic activity in Salmonella Typhimurium TA1535 at 100 uM after 2 hrs by plate-incorporating method in presence of Fe2+-Cu2+-H2O2.
In series [6] the test system is Salmonella typhimurium. The experiment in a line: Mutagenic activity in Salmonella Typhimurium TA1535 at 100 uM after 2 hrs by plate-incorporating method in presence of Fe2+-Cu2+-H2O2 and nitric oxide.
Series [7] has as its system Salmonella typhimurium. Briefly: Mutagenic activity in Salmonella Typhimurium TA1535 at 100 uM after 2 hrs by plate-incorporating method.

Regarding `CCCCCN(C)N=O`, the Activity entry with Salmonella typhimurium [1] is “Toxic”; in the series with Salmonella typhimurium [2], “Non-toxic”; in the series with Salmonella typhimurium [3], “Non-toxic”; in the series on Salmonella typhimurium [4], “Non-toxic”; in the series on Salmonella typhimurium [5], “Toxic”; in the series on Salmonella typhimurium [6], “Toxic”.

For `CCC1([N+](=O)[O-])CCN=[N+]1[O-]` (configuration not stated), the Activity entry with Salmonella typhimurium [7] is recorded as “Toxic”.
